Test results: patent US20250099455A1, “TREATMENT FOR CONGESTIVE HEART FAILURE” (FibroGen, Inc., priority 2022, published 2025)
Entries after “also recorded” stand apart in the source; their conditions may differ.

What was measured:
[1] = target: PHD1 (Homo sapiens (Human), UniProt Q96KS0); assay: HIF-PH assay (14CO2 capture), PHD1; type: biochemical
Text: The selectivity profile for the compound of Formula I can be determined using, for example, any assay familiar and commonly accessible to those skilled in the art, e.g., the following HIF-PH assay.
Ketoglutaric acid α-[1-^14C]-sodium salt, alpha-ketoglutaric acid sodium salt, and HPLC purified peptide may be obtained from commercial sources, e.g., Perkin-Elmer (Wellesley MA), Sigma-Aldrich, and SynPep Corp. (Dublin CA), respectively. Peptides for use in the assay may be fragments of HIFα as described above or as disclosed in International Publication WO 2005/118836, incorporated by reference herein. HIF-PH, e.g., PHD1 (EGLN2) or PHD2 (EGLN1), can be expressed in, e.g., insect Hi5 cells, and partially purified, e.g., through a SP ion exchange chromatography column. Enzyme activity is determined by capturing ^14CO2 using an assay described by Kivirikko and Myllyla (1982, Methods Enzymol. 82:245-304). Assay reactions contain 50 mM HEPES (pH 7.4), 100 μM α-ketoglutaric acid sodium salt, 0.30 μCi/mL ketoglutaric acid α-[1-^14C]-sodium salt, 40 μM FeSO4, 1 mM ascorbate, 1541.8 units/mL Catalase, with or without 50 µM peptide substrate and various concentrations of compound of the invention. Reactions are initiated by addition of HIF-PH enzyme. IC50 (compound concentration for 50% inhibition of enzyme activity) of the compounds for each enzyme can be determined.
The peptide-dependent percent turnover is calculated by subtracting percent turnover in the absence of peptide from percent turnover in the presence of substrate peptide. Percent inhibition and IC50 are calculated using peptide-dependent percent turnover at given inhibitor concentrations. Calculation of IC50 values for each inhibitor is conducted using GraFit software (Erithacus Software Ltd., Surrey UK). IC50 of test compound for PHD1 and for PHD2 and/or PHD3 can be readily determined using the above method, and used to assess the selectivity of the compound for inhibition of PHD1.

[2] = system: coronary artery (isolated heart preparation); assay: Coronary artery vasodilation in an isolated heart preparation
[3] = system: congestive heart failure subsequent to myocardial infarction; assay: Rat CHF subsequent to myocardial infarction, every other day dosing (Example 1); type: in vivo
Procedure: The effect of the compound of Formula I on cardiac function in congestive heart failure (CHF) was studied by inducing CHF subsequent to myocardial infarction (MI). Three groups of rats (n=12) were subjected to MI by 30 minute ligation of the left coronary artery followed by reperfusion. In a sham group, rats underwent a similar surgical procedure except that the left coronary artery was not occluded. Treatment with the compound of Formula I was initiated 2 days after reperfusion. In the MI groups, rats were dosed orally every other day with vehicle, 6 mg/kg or 20 mg/kg compound from day 2 to day 26 post MI. In the sham group, rats were dosed with vehicle on the same schedule. At 28 days post-MI, cardiac function, heart weight, and complete blood count (CBC) were measured. Histomorphometric analysis was performed on cardiac sections to quantify collagen deposition with picrosirius red staining (PSR), remodeling with hematoxylin and eosin staining and blood vessel number with immunohistochemistry for smooth muscle α-actin. • Male Sprague Dawley rats • Ligation of left coronary artery for 30 minutes followed by reperfusion • Post-ligation recovery for 28 days • Cardiac function 28 days after ischemia-reperfusion using a Millar pressure-volume catheter inserted in the left ventricle via the carotid artery • Record pressure-volume loops over several cardiac cycles and derived cardiac function parameters

[4] = system: congestive heart failure following myocardial ischemia; assay: Acute myocardial ischemia induced HF, dose response / MED; type: in vivo, rat
Procedure: • Male Sprague Dawley rats • Ligation of left coronary artery for 30 minutes followed by reperfusion • Post-ligation recovery for 28 days • Cardiac function 28 days after ischemia-reperfusion using a Millar pressure-volume catheter inserted in the left ventricle via the carotid artery • Record pressure-volume loops over several cardiac cycles and derived cardiac function parameters Dose response with the compound of Formula I on cardiac function in congestive heart failure (CHF) was studied by inducing CHF following myocardial ischemia for the determination of Minimum Effective Dose (MED) 2 mg/kg, as shown in FIGS. 10A and 10B.

[5] = system: congestive heart failure subsequent to myocardial infarction; assay: Acute myocardial ischemia induced HF, duration of administration (regimens); type: in vivo, rat
[6] = Preliminary PK profile in dogs; type: in vivo, dog
Text: The preliminary PK profile of the compound of Formula I in dogs was studied and the results are shown in FIG. 19 and summarized in the following Table.

[7] = system: myocardial ischemia-induced heart failure (HFrEF); assay: Rat model of ischemic HFrEF, Formula I and empagliflozin alone and in combination; type: in vivo
Procedure: • Male Sprague Dawley rats • Ligation of left coronary artery for 30 minutes followed by reperfusion • Post-ligation recovery for 28 days • Cardiac function 28 days after ischemia-reperfusion using a Millar pressure-volume catheter inserted in the left ventricle via the carotid artery • Record pressure-volume loops over several cardiac cycles and derived cardiac function parameters A) Rat Model of Ischemic Heart Failure with Reduced Ejection Fraction (HFrEF)

[8] = system: permanent myocardial ischemia induced HF; assay: Permanent myocardial ischemia induced HF; type: in vivo, rat; conditions: 6, 20 mg/kg daily, 4 weeks; at both doses
[9] = system: global ischemia; assay: Acute cardioprotection: left ventricular function and coronary flow after global ischemia
[10] = 6 or 20 mg/kg oral QOD day 2-26 post MI, 28 days post-MI
[11] = 6 or 20 mg/kg oral QOD day 2-26 post MI, 28 days post-MI, vs vehicle
[12] = histomorphometry of left ventricle, QOD dosing, 28 days
[13] = 0.2, 0.6, 2 mg/kg daily, 4 weeks, effect at 2 mg/kg
[14] = 20 mg/kg daily for 7, 14 or 28 days
[15] = dog, in vivo, dogs, preliminary

PHD1, sequence (Q96KS0 whole entry, species assumed): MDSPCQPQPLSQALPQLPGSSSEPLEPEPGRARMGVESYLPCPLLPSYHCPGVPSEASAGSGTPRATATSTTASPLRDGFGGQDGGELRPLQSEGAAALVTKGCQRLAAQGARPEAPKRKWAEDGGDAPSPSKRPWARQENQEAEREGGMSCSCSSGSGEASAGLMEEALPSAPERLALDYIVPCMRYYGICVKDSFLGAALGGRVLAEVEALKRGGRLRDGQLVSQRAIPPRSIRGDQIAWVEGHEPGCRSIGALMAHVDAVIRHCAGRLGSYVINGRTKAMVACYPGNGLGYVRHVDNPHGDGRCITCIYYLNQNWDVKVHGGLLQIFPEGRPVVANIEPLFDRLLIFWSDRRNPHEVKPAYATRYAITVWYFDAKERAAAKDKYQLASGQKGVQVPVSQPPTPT

Molecule `CC(C)(CC(=O)O)NC(=O)c1nc(C#N)c2cc(Oc3ccccc3)ccc2c1O` [Formula I, 3-[(1-cyano-4-hydroxy-7-phenoxy-isoquinoline-3-carbonyl)-amino]-3-methyl-butyric acid] has an IC50 ([1]; Table 1) of 0.91 µM, an IC50 ([1]; additional experiment, Table 1A) of 0.7 µM and a PHD2/PHD1 ([1]; ratio IC50 PHD2/IC50 PHD1, additional experiment, Table 1A) of 24. For the same molecule, the “coronary artery vasodilation (coronary perfusion pressure, coronary resistance)” value [2] was “induced”, the collagen deposition ([3]; 6, 20 mg/kg QOD, 4 weeks) was “reduced; also recorded: reduction in cardiac hypertrophy” and the ESPVR slope [3, 10] was “normalized”. For the same molecule, the circulating hemoglobin level [3, 10] was “did not produce a concomitant significant increase; also recorded: without any concomitant rise”, the “other CBC parameters” value [3, 10] was “did not produce a concomitant significant increase in circulating hemoglobin level or have a significant effect” and the arterial elastance [3, 11] was “significantly improved”. For the same molecule, the cardiac hypertrophy [3, 11] was “significantly improved; also recorded: significant improvement; also recorded: reduced; also recorded: reduction in cardiac hypertrophy”, the cardiac output [3, 11] was “significantly improved; also recorded: significant improvement” and the ejection fraction [3, 11] was “significantly improved; also recorded: significant improvement; also recorded: improved at both doses)”. The end-diastolic pressure [3, 11] was “significantly improved”, the end-systolic pressure [3, 11] was “significantly improved” and the end-systolic volume [3, 11] was “significantly improved; also recorded: significant improvement”. The relaxation time [3, 11] was “significantly improved; also recorded: significant improvement”, the stroke volume [3, 11] was “significantly improved; also recorded: significant improvement” and the stroke work [3, 11] was “significantly improved; also recorded: significant improvement”. For the same molecule, the cardiac contractility ([3]; every day or every other day for 28 days) was “significant improvement”, the “hypervascularization in the peri-infarct area” value [3, 12] was “significant reduction” and the “left ventricular wall thinning / wall thickness” value [3, 12] was “prevention of ventricular wall thinning; also recorded: preserved”. The cardiac hypertrophy [4, 13] was “Significant reduction in cardiac”, the diastolic function [4, 13] was “hypertrophy and improved systolic” and the systolic function [4, 13] was “hypertrophy and improved systolic”. For the same molecule, the “Minimum Effective Dose (MED)” value ([4]; cardiac function in CHF following myocardial ischemia) was 2 mg/kg, the collagen deposition [5, 14] was “All regimens reduced collagen” and the diastolic function [5, 14] was 14 and 28 days regimens improved. For the same molecule, the systolic function [5, 14] was 14 and 28 days regimens improved, the cardiac hypertrophy ([5]; 20 mg/kg daily, 14 and 28 days regimens) was “reduced cardiac hypertrophy” and the “Sex difference in PK” value ([6]; dog) was “No”. For the same molecule, the Dose proportional ([6]; dog, 10-60 mg/kg) was “Yes”, the “CL” value ([6]; dog, PK summary table) was 252 ± 41 mL/kg/h and the half-life ([6]; dog, in vivo, PK summary table) was 660 ± 120 min. For the same molecule, the bioavailability ([6]; dog, in vivo, po, dogs, read-out: Oral bioavailability (Oral % F)) was about 25%, the AUC(0-inf) [6, 15] was 10200 ± 3300 ng·h/mL and the AUC(0-t) [6, 15] was 10200 ± 3300 ng·h/mL. It also gave a Cmax [6, 15] of 2600 ± 1900 ng/mL, a Tmax [6, 15] of 48 ± 24 min and a clearance [6, 15] of 4.2 mL/min/kg. The half-life [6, 15] was 678 ± 108 min, the Vd ([6]; dog, in vivo, dogs, preliminary, read-out: Vss) was 0.249 ± 0.073 L/kg and the Dose proportional ([6]; dog, up to 150 mg/kg) was “less than dose”. The “Accumulation (after multiple dosing)” value ([6]; dog, no data, expected based on T1/2) was “some acc based”, the “Vss relative to plasma volume” value ([6]; dogs) was “higher than plasma volume” and the “Clearance in dogs relative to CL in rats” value ([6]; dogs vs rats) was 5-10 ×. For the same molecule, the Tmax ([6]; in vivo, oral, dog, PK summary table) was about 60 min, the “improvement in ejection fraction” value [7] was about 30% and the “improvement in end systolic volume” value [7] was about 30%. For the same molecule, the cardiac hypertrophy [8] was “Non-significant reduction in cardiac”, the collagen deposition [8] was “Non-significant reduction in cardiac” and the coronary flow [9] was “improved”. The left ventricular function [9] was “improved”, the “left ventricular function (LVDP)” value [9] was “improved” and the “left ventricular function (LVEP)” value [9] was “improved”.
